Test systems include UACC-257 melanoma; ACHN renal; PC-3 prostate; HCC-2998 colon; SK-MEL-2 melanoma; NCI-H226 lung; RXF 393 renal; SK-OV-3 ovarian; CCRF-CEM leukemia; MALME-3M melanoma; COLO 205 colon.
What all share (assay): NCI anticancer screen, dose series, 48 h

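Five concentrations, 48 hours, 96-well plates. TGI marks complete inhibition of growth.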

As to `CC1=NN(c2cccc(Cl)c2)C2(C1=Cc1cccs1)C(Cl)C(=O)N2c1nc2ccccc2s1` (stereo not given), the TGI came out at 57.3 µM in the assay with UACC-257 melanoma; 50.6 µM with ACHN renal; 48.7 µM with PC-3 prostate; 35.3 µM in the assay with HCC-2998 colon; 36.5 µM in the assay on SK-MEL-2 melanoma; 53.5 µM in the assay with NCI-H226 lung. Further, the TGI in the assay with RXF 393 renal was 45.8 µM.

As to `COC(O)C(=O)c1c2c(cc3c1CCC3)CCC2` (stereo not given), the TGI with SK-OV-3 ovarian, in the assay with CCRF-CEM leukemia, with MALME-3M melanoma, in the assay with UACC-257 melanoma, with ACHN renal and in the assay with PC-3 prostate was more than 100 µM throughout. Further, the TGI in the assay on HCC-2998 colon, in the assay with COLO 205 colon, with SK-MEL-2 melanoma and in the assay on NCI-H226 lung was more than 100 µM each time.

On to `C/C(=N\Nc1nc2ccccc2o1)c1ncccn1`, for which the TGI turned out to be 10 µM with SK-OV-3 ovarian; 0.0584 µM with CCRF-CEM leukemia; 15.6 µM in the assay on UACC-257 melanoma; 11.3 µM in the assay on ACHN renal; 19.9 µM in the assay on PC-3 prostate; 20.7 µM in the assay on HCC-2998 colon. The TGI amounted to 15.8 µM with COLO 205 colon, 13.6 µM in the assay on SK-MEL-2 melanoma, 0.64 µM with NCI-H226 lung and 5.59 µM with RXF 393 renal.

In the case of `Cc1n[nH]c(=O)n1Nc1ccccc1`, the TGI in the assay with SK-OV-3 ovarian, in the assay with CCRF-CEM leukemia, in the assay on MALME-3M melanoma, in the assay on UACC-257 melanoma, with ACHN renal and in the assay on PC-3 prostate was more than 100 µM each time. Besides, the TGI in the assay with HCC-2998 colon, with COLO 205 colon and in the assay on NCI-H226 lung was more than 100 µM each time.

As for `O=c1sc(Nc2ccc3ccccc3c2Cl)nc2ccccc12`, the TGI with SK-OV-3 ovarian, in the assay on CCRF-CEM leukemia, in the assay on MALME-3M melanoma, with UACC-257 melanoma, with ACHN renal and in the assay on PC-3 prostate was more than 100 µM in each case. Further, the TGI with HCC-2998 colon, in the assay on COLO 205 colon, in the assay on SK-MEL-2 melanoma and in the assay on RXF 393 renal was more than 100 µM in each case.

On to `CC(=O)c1cc(CC2Cc3cc4c(cc3C2=O)CCC4)cc2c1CCC2` (stereo not given), for which the TGI in the assay with SK-OV-3 ovarian, in the assay with CCRF-CEM leukemia, in the assay with MALME-3M melanoma, in the assay on UACC-257 melanoma, in the assay with ACHN renal and with PC-3 prostate was more than 100 µM in each case. In addition, the TGI with HCC-2998 colon was more than 100 µM; in the assay with COLO 205 colon it was 76.2 µM; with SK-MEL-2 melanoma, more than 100 µM; with NCI-H226 lung, more than 100 µM.

Regarding `COC(=O)CNC(=O)CNC(=O)CSc1nnc(COc2ccc(Cl)cc2)n1-c1ccccc1`, the TGI is 57.4 µM in the assay on CCRF-CEM leukemia; 35.3 µM in the assay on MALME-3M melanoma; 40.5 µM in the assay with UACC-257 melanoma; more than 100 µM with ACHN renal; more than 100 µM with PC-3 prostate; more than 100 µM in the assay with HCC-2998 colon. The TGI with COLO 205 colon was more than 100 µM; with SK-MEL-2 melanoma it was 43.9 µM; in the assay on NCI-H226 lung it was more than 100 µM; in the assay with RXF 393 renal, 36.8 µM.

On to `COc1ccc2nc3c(C)cc4ccccc4n3c2c1`, for which the TGI in the assay on SK-OV-3 ovarian, in the assay with CCRF-CEM leukemia, in the assay on MALME-3M melanoma, with UACC-257 melanoma, in the assay with ACHN renal and in the assay on PC-3 prostate was more than 100 µM in each case. The TGI with HCC-2998 colon, with NCI-H226 lung and in the assay on RXF 393 renal was more than 100 µM in each case.

With `CCOC(=O)NC(Nc1ccc(S(=O)(=O)Nc2ccc(OC)nn2)cc1)(C(F)(F)F)C(F)(F)F`, the TGI is more than 100 µM with SK-OV-3 ovarian; 70.4 µM with CCRF-CEM leukemia; 40.2 µM in the assay on MALME-3M melanoma; 98.6 µM in the assay with UACC-257 melanoma; 90.7 µM with ACHN renal; more than 100 µM in the assay on PC-3 prostate. Also, the TGI was more than 100 µM with HCC-2998 colon, 58.7 µM in the assay on COLO 205 colon, 75.9 µM in the assay on NCI-H226 lung and 34.8 µM in the assay with RXF 393 renal.

As for `CCOc1cc(/C=N/c2nc3cc4sc(/N=C/c5ccc(O)c(OCC)c5)nc4cc3s2)ccc1O`, the TGI with SK-OV-3 ovarian, with MALME-3M melanoma, in the assay on UACC-257 melanoma, with ACHN renal, in the assay on PC-3 prostate and in the assay with HCC-2998 colon was more than 100 µM each time. In addition, the TGI with COLO 205 colon, in the assay with SK-MEL-2 melanoma, in the assay on NCI-H226 lung and in the assay with RXF 393 renal was more than 100 µM throughout.

With `N#Cc1sc2c(c1OC(=O)c1ccc(Cl)cc1)c(=O)n(-c1ccccc1)c(=S)n2-c1ccccc1`, the TGI in the assay on SK-OV-3 ovarian is 91.4 µM; in the assay on CCRF-CEM leukemia it was 31.2 µM; in the assay with MALME-3M melanoma, 54.4 µM; in the assay with UACC-257 melanoma, more than 100 µM; in the assay on ACHN renal, 86.8 µM; in the assay on PC-3 prostate it was 80.2 µM. The TGI in the assay on HCC-2998 colon worked out at 52.2 µM; in the assay with COLO 205 colon it was 38.1 µM; in the assay with NCI-H226 lung, 86.7 µM; in the assay with RXF 393 renal, 50.7 µM.

Take `Cc1ccc(C(=O)O)c(/C=C2\Cc3cc(C)cc(C)c3C2=O)c1`: the TGI in the assay with CCRF-CEM leukemia, in the assay with MALME-3M melanoma, in the assay with UACC-257 melanoma, with ACHN renal, with PC-3 prostate and in the assay on HCC-2998 colon was more than 100 µM in each case. Besides, the TGI in the assay on SK-MEL-2 melanoma, with NCI-H226 lung and in the assay on RXF 393 renal was more than 100 µM in each case.

For `Cc1cc(O)c2c(c1)C(C1OC(CO)C(O)C(O)C1O)c1cc(O)cc(O)c1C2=O` (stereo not given), the TGI with SK-OV-3 ovarian, with CCRF-CEM leukemia, in the assay on MALME-3M melanoma, in the assay on UACC-257 melanoma, in the assay with ACHN renal and with PC-3 prostate was more than 100 µM in each case. The TGI with HCC-2998 colon, with COLO 205 colon and in the assay with NCI-H226 lung was more than 100 µM each time.

In the case of `COc1ccc(C[n+]2cccc(O)c2)cc1`, the TGI in the assay with SK-OV-3 ovarian, with CCRF-CEM leukemia, in the assay with MALME-3M melanoma, in the assay on ACHN renal, in the assay with PC-3 prostate and with HCC-2998 colon was more than 100 µM in each case. Further, the TGI with SK-MEL-2 melanoma, in the assay on NCI-H226 lung and with RXF 393 renal was more than 100 µM each time.

On to `O=c1ccn(Cc2ccccc2CCl)c(=O)[nH]1`, for which the TGI in the assay with SK-OV-3 ovarian is more than 100 µM; in the assay on CCRF-CEM leukemia, more than 100 µM; in the assay on MALME-3M melanoma, 40.6 µM; with UACC-257 melanoma, 98.8 µM; in the assay on ACHN renal, 75.6 µM; in the assay with PC-3 prostate, more than 100 µM. The TGI turned out to be 59 µM in the assay on HCC-2998 colon, 94.3 µM in the assay on COLO 205 colon, 89 µM in the assay with SK-MEL-2 melanoma and 53.5 µM in the assay with RXF 393 renal.

Turning to `COc1ccc(C(=O)N2CCN(c3ccc4c(c3)OCC(=O)N4)CC2)cc1OC`, the TGI in the assay on SK-OV-3 ovarian, in the assay with CCRF-CEM leukemia, in the assay with MALME-3M melanoma, in the assay with UACC-257 melanoma, in the assay on ACHN renal and in the assay on PC-3 prostate was more than 100 µM each time. Also, the TGI in the assay with HCC-2998 colon, with COLO 205 colon, in the assay on SK-MEL-2 melanoma and with NCI-H226 lung was more than 100 µM each time.

Turning to `O=C1NC(=S)N/C1=C\c1ccc(Cl)cc1`, the TGI in the assay on SK-OV-3 ovarian, in the assay on CCRF-CEM leukemia, in the assay on MALME-3M melanoma, in the assay on PC-3 prostate, in the assay with HCC-2998 colon and in the assay on COLO 205 colon was more than 100 µM each time. In addition, the TGI with SK-MEL-2 melanoma, in the assay on NCI-H226 lung and in the assay with RXF 393 renal was more than 100 µM each time.

On to `CCC(=O)N(c1ccccc1)C(C)CN1CCC(O)(c2cccc(C(F)(F)F)c2)CC1` (stereo not given), for which the TGI is more than 100 µM with SK-OV-3 ovarian; 50.1 µM in the assay on CCRF-CEM leukemia; 34.3 µM in the assay with UACC-257 melanoma; more than 100 µM in the assay with ACHN renal; 46 µM with PC-3 prostate; 57.3 µM in the assay on HCC-2998 colon. The TGI was 28.5 µM with COLO 205 colon, 43 µM with SK-MEL-2 melanoma, 76.5 µM in the assay on NCI-H226 lung and more than 100 µM in the assay with RXF 393 renal.

As for `COc1ccc(-c2[nH]c(-c3ccc(OC)cc3)c(-c3ccccn3)c2-c2ccccn2)cc1`, the TGI with SK-OV-3 ovarian, with CCRF-CEM leukemia, in the assay with MALME-3M melanoma, in the assay on UACC-257 melanoma, in the assay with ACHN renal and in the assay with PC-3 prostate was more than 100 µM each time. Moreover, the TGI with HCC-2998 colon is 46.3 µM; in the assay on COLO 205 colon, 61.1 µM; in the assay on NCI-H226 lung, more than 100 µM; in the assay with RXF 393 renal, more than 100 µM.

For the molecule `CC(O)CC(=O)CO[C@H]1[C@H](O)[C@@H](O)[C@@H](O)[C@@H]2NC(=O)c3c(cc4c(c3O)OCO4)[C@H]21` (stereo not given in full), the TGI with MALME-3M melanoma was 0.0529 µM; with UACC-257 melanoma, 1.02 µM; with ACHN renal, 0.613 µM; in the assay on PC-3 prostate it was 0.303 µM; in the assay on HCC-2998 colon it was 0.0609 µM; with COLO 205 colon it was 0.135 µM. Moreover, the values for the TGI with SK-MEL-2 melanoma, in the assay with NCI-H226 lung and in the assay on RXF 393 renal were 0.261 µM, 1.49 µM and 0.131 µM, respectively.

Turning to `O=[N+]([O-])c1ccc(Cc2nc3cc4ccccc4cc3[nH]2)cc1C(F)(F)F`, the TGI in the assay on SK-OV-3 ovarian is 31 µM; in the assay with CCRF-CEM leukemia, more than 100 µM; with MALME-3M melanoma, 25.1 µM; with UACC-257 melanoma, 29.5 µM; in the assay with ACHN renal, 29.3 µM; in the assay on PC-3 prostate, more than 100 µM. Besides, the TGI with HCC-2998 colon worked out at 30.1 µM; with COLO 205 colon it was 34.3 µM; with SK-MEL-2 melanoma it was 44.4 µM; in the assay on RXF 393 renal, 32.1 µM.

For the origin of these results see PubChem BioAssay (NCI).
